# According to PMC12013085, “Peptides targeting RAB11A–FIP2 complex inhibit HPIV3, RSV, and IAV replication as broad-spectrum antivirals” (Cell & Bioscience, 2025):
# Where two headings read alike, the source gives them in different places.
# How the values were obtained:
# HPIV3 VLPs in 293T cells = test: HPIV3 VLP budding and plasma membrane fraction assay, WB; type: cell-based; conditions: 293T cells transfected with N, P, M plasmids 30 h, inhibitor for 6 h
# Method: Data are presented as means ± SEM
# The cell lysates were prepared as described for the Western blot (WB) analysis. The supernatant was harvested and clarified by centrifugation at 12,000×g for 5 min. Subsequently, the supernatant was pelleted through a 20% sucrose cushion at 4 °C at 35,000 rpm for 2 h. The VLP pellets obtained were resuspended in PBS and boiled with SDS-PAGE loading buffer at 100 °C for 10 min. Both the cell lysates and the supernatants were then subjected to WB analysis.
# 293T cells, cultured in 6-cm dishes, were transfected with the indicated plasmids for 24 h. Cell collection was performed through centrifugation at 500×g for 5 min at 4 °C. Subsequently, cytosol, organelle membrane, and plasma membrane-associated proteins were extracted sequentially using the MinuteTM plasma membrane protein isolation and cell fractionation kit (INVENT), following the manufacturer's instructions.
# HPIV3 [1] = test: Late-stage HPIV3 replication with cytoskeleton inhibitors (TCID50, RT-qPCR, WB); conditions: HeLa cells infected 18 h, then inhibitor for 6 h; for viral RNA synthesis and protein expression levels: RT-qPCR and WB; for HPIV3 virions in the supernatant / intracellular progeny virus particles: TCID50 at 24 hpi
# Method: To investigate the role of the cytoskeleton in the later stages of infection, HeLa cells were infected with HPIV3 for 18 h before being treated with the inhibitors for an additional 6 h.
# A–D Impact of cytoskeleton inhibitors on HPIV3 replication. HeLa cells infected with HPIV3 for 18 h were treated with Nocodazole (NCZ) or Cytochalasin D (Cyto D). At 24 h post infection (hpi), the virions released in the cell supernatant (A) and the quantity of intracellular progeny virus particles (B) were determined by TCID50 assays. Cells were collected for RT-qPCR analysis of intracellular viral RNA (C), and Western Blot (WB) analysis of intracellular viral protein (D). […] All experiments were independently repeated at least twice with reproducible results. Statistical significance (*p < 0.05, **p < 0.01, ***p < 0.001) was determined by two-sided unpaired t test. Data are means ± SEM
# WSN virus = type: in vivo, BALB/c mice; conditions: 20 mg/kg i.p. once daily Day 0 to Day 4, positive control, n = 5
# HPIV3 [2] = system: HPIV3
# HeLa cells = test: Cellular uptake of FITC-labeled RBD, fluorescent microscopy; type: in vitro ADME; conditions: 5 μM FITC-labeled RBD, with or without HPIV3HA-P infection, fluorescent microscopy at 24 hpi
# Method: Supplementary file 13578_2025_1384_MOESM4_ESM.tif: Supplementary Material 4. Fig. S4. Cell penetration, cytotoxicity, and anti-HPIV3 activity of RBD in different cell lines. (A) Cellular uptake of FITC-labeled RBD in HeLa Cells. HeLa cells were exposed to 5 μM FITC-labeled RBD in the absence or presence of HPIV3HA-P infection, and analyzed by fluorescent microscopy at 24 hpi. RBD (green), HPIV3HA-P (red), and nuclei were stained with DAPI. Scale bar, 50 μm. (B to F) Cytotoxicity of RBD in various cell lines. Cell viability was assessed in HeLa (B), A549 (C), MK2 (D), MDCK (E) and HEp-2 cells (F) treated with increasing concentrations of […] for 24 h using the CCK-8 assay. (G to I) Antiviral efficacy of RBD against HPIV3 in different cell lines. A549 (G), MK2 (H) and MDCK (I) cells were treated with 2-fold-increasing concentrations of RBD for 24h, and viral titers in the cell supernatant were determined by TCID50. […] Data are means ± SEM.
# [3] = system: HeLa, A549, MK2, MDCK and HEp-2 cells; conditions: CCK-8, 24 h treatment, in the tested cell lines (HeLa, A549, MK2, MDCK, HEp-2)
compound,measurement,setting,value
"C=C1[C@@H](C)[C@H]2[C@H](Cc3ccccc3)NC(=O)[C@]23[C@H](OC(C)=O)/C=C/[C@@](C)(O)C(=O)[C@@H](C)C/C=C/[C@H]3[C@@H]1O [Cyto D, Cytochalasin D]",VLP production,HPIV3 VLPs in 293T cells,substantial impact
same,viral RNA synthesis and protein expression levels,HPIV3 [1],unaffected
same,HPIV3 virions in the supernatant,HPIV3 [1],significant reduction
same,intracellular progeny virus particles,HPIV3 [1],decrease
"COC(=O)Nc1nc2ccc(C(=O)c3cccs3)cc2[nH]1 [NCZ, Nocodazole]",VLP production,HPIV3 VLPs in 293T cells,modest effect
same,viral RNA synthesis and protein expression levels,HPIV3 [1],unaffected
same,HPIV3 virions in the supernatant,HPIV3 [1],significant reduction
same,intracellular progeny virus particles,HPIV3 [1],decrease
"CCOC(=O)C1=C[C@@H](OC(CC)CC)[C@H](NC(C)=O)[C@@H](N)C1 [Osel, Oseltamivir, reference compound]","protection against morbidity and mortality, IAV (WSN)",WSN virus,complete protection against morbidity and mortality
"N=C(N)NCCC[C@H](NC(=O)[C@H](CCCNC(=N)N)NC(=O)[C@H](CCCNC(=N)N)NC(=O)[C@H](CCC(N)=O)NC(=O)[C@H](CCCNC(=N)N)NC(=O)[C@H](CCCNC(=N)N)NC(=O)[C@H](CCCCN)NC(=O)[C@H](CCCCN)NC(=O)[C@@H](N)CCCNC(=N)N)C(=O)O [Tat, reference compound]",antiviral effect on HPIV3 infection (in words),"HPIV3 [2]; HeLa cells, escalating concentrations, 24 hpi, WB and TCID50",no discernible antiviral effect
THIRELEDYIDNLLVRVMEETPSILRVPRKKRRQRRR [RBD],cell penetration (cellular uptake),HeLa cells,efficiently penetrated HeLa cells
same,"SI (CC50/IC50), HPIV3, A549",HPIV3 [2]; A549 cells,> 21.55
same,"SI (CC50/IC50), HPIV3, HeLa",HPIV3 [2]; HeLa cells,> 23.08
same,"SI (CC50/IC50), HPIV3, MDCK",HPIV3 [2]; MDCK cells,> 15.37
same,"SI (CC50/IC50), HPIV3, MK2",HPIV3 [2]; MK2 cells,> 27.68
same,IC50,"HPIV3 [2]; read-out: IC50, HPIV3, A549",3.48 µM
same,IC50,"HPIV3 [2]; read-out: IC50, HPIV3, HeLa",3.25 µM
same,IC50,"HPIV3 [2]; read-out: IC50, HPIV3, MDCK",4.88 µM
same,IC50,"HPIV3 [2]; read-out: IC50, HPIV3, MK2",2.71 µM
same,CC50,[3],> 75 µM
